Here are results for 6 molecules from patent EP4745135A1 (Gluetacs Therapeutics (Shanghai) Co., Ltd., priority 2023, dated 2025).

For assay [1], the system named is Human breast cancer cell (MCF-7). Kind of assay: Tumor cell proliferation inhibition (CellTiter-Meiluncell luminescent cell viability assay). Particulars: MCF7, 96 h; for inhibition at 0.01 µM: read-out: Inhibition Rate at 10 nM (%); for inhibition at 0.5 µM: read-out: Inhibition Rate at 500 nM (%).
For assay [2], the target named is T1, human Cereblon WT GST-tagged protein (Homo sapiens, UniProt Q96SW2).
T1 construct: purchased CISBIO 64BDCRBNPEH
The assay can be described thus: CRBN-binding affinity, HTRF (CEREBLON BINDING kit). Particulars: for inhibition at 0.5 µM: read-out: Inhibition Rate at 0.5 µM (%); for inhibition at 2 µM: read-out: Inhibition Rate at 2 µM (%).

The test system of assay [3] is GSPT1. The assay can be described thus: Western blot, degradation of substrate protein in hPBMCs. Format: cell-based, Human. The conditions noted are these: 24 hours treatment, compounds at 50 nM and 500 nM (concentration behind the class not stated). For orientation: A western blot detects proteins with antibodies after separation by electrophoresis.
Assay [4] has as its target T2, CK1α (Homo sapiens, UniProt P48729+Q96SW2).
T2 construct: effects of the compounds of the present disclosure on the expression of target proteins in cells; endogenous in cells; host or cells: human PBMCs (Milecell Biotechnologies)
The assay is described as above. The conditions noted are these: 24 hours treatment, compounds at 50 nM and 500 nM (concentration behind the class not stated). It counts as cell-based.

For assay [5], the target named is T3, IKZF3 (Homo sapiens, UniProt Q96SW2+Q9UKT9).
T3 construct: effects of the compounds of the present disclosure on the expression of target proteins in cells; endogenous in cells; host or cells: human PBMCs (Milecell Biotechnologies)
Described as above. Particulars: 24 hours treatment, compounds at 50 nM and 500 nM (concentration behind the class not stated). Format: cell-based.

Assay [6] concerns the target T4, WEE1 (Homo sapiens, UniProt P30291+Q96SW2).
T4 construct: effects of the compounds of the present disclosure on the expression of target proteins in cells; endogenous in cells; host or cells: human PBMCs (Milecell Biotechnologies)
The assay is described as above. It counts as cell-based. The conditions noted are these: 24 hours treatment, compounds at 50 nM and 500 nM (concentration behind the class not stated).

Assay [7] addresses T5, IKZF1 (Homo sapiens, UniProt Q13422+Q96SW2).
T5 construct: effects of the compounds of the present disclosure on the expression of target proteins in cells; endogenous in cells; host or cells: human PBMCs (Milecell Biotechnologies)
The assay is described as above. It counts as cell-based. The conditions noted are these: 24 hours treatment, compounds at 50 nM and 500 nM (concentration behind the class not stated).

For assay [8], the target named is T6, IKZF2 (Homo sapiens, UniProt Q96SW2+Q9UKS7).
T6 construct: effects of the compounds of the present disclosure on the expression of target proteins in cells; endogenous in cells; host or cells: human PBMCs (Milecell Biotechnologies)
Described as above. It counts as cell-based. The conditions noted are these: 24 hours treatment, compounds at 50 nM and 500 nM (concentration behind the class not stated).

For assay [9], the system named is Human malignant melanoma cell line: A375. Kind of assay: Tumor cell proliferation inhibition (CellTiter-Meiluncell luminescent cell viability assay). The conditions noted are these: A-375, 96 h; for inhibition at 0.01 µM: read-out: Inhibition Rate at 10 nM (%); for inhibition at 0.5 µM: read-out: Inhibition Rate at 500 nM (%).
Assay [10] relates to Human monocytic leukemia cell line: THP-1. The assay is described as above. Particulars: THP-1, 96 h; for inhibition at 0.01 µM: read-out: Inhibition Rate at 10 nM (%); for inhibition at 0.5 µM: read-out: Inhibition Rate at 500 nM (%).
Experimental: (§1) The tumor cells used herein were cultured in a cell culture medium listed in table 2 at 37°C in an incubator with 5% CO2. Prior to experimentation, all cell lines used were correctly identified by STR profiling, and tested negative for mycoplasma contamination using a mycoplasma detection kit through routine screenings.
(§2) The IC50 values of the compounds of the present disclosure (including the compounds in Table 1 and Examples) were determined using the CellTiter-Meiluncell Luminescent Cell Viability Assay Kit from Dalian Meilun Biotech Co., Ltd. The detailed procedure is as follows: Tumor cells were seeded in 96-well cell culture plates at the densities specified in Table 3. On the following day, the test compounds of the present disclosure were subjected to serial dilution. The dilution can be performed according to one of the following two methods: • (1) The first dilution method: The test compounds of the present disclosure (including the compounds in Table 1 and Examples) were subjected to 5-fold serial dilutions starting from a highest concentration of 2000 µM, resulting in a total of 9 concentrations from high to low (2000, 400, 80, 16, 3.2, 0.64, 0.128, 0.0256, 0.00512 µM). Subsequently, 0.5 µL of the test compound dilution was transferred into the 96-well plate containing the cells, with each well containing 100 µL of cell culture medium. […] Into the 96-well plate, the diluted test compounds and corresponding detection reagents were added, resulting in final test compound concentrations of 500 nM and 10 nM, respectively. The experimental procedure is described below using the diluted 2 µM test compound as an example.
(§3) 0.5 µL of the aforementioned diluted compound of the present disclosure (including the compounds in Table 1 and Examples) was added to the seeded cells in 100 µL of medium, yielding a final test compound concentration of 10 nM. After the cells were treated with the compounds of the present disclosure for a specified period, the cell viability assay reagent was added to the culture medium according to the kit's instructions to determine cell viability. […] All controls were treated using the same procedure as the compounds of the present disclosure. The growth inhibition curves for the compounds of the present disclosure were plotted using Prism GraphPad software, and the IC50 values were calculated therefrom.
The test system of assay [11] is Human multiple myeloma peripheral blood B lymphocyte cell (RPMI-8226). The description is as above. The conditions noted are these: RPMI-8226, 96 h.
Assay [12] concerns Human colon cancer cell line: SW620. The assay is described as above. Particulars: SW-620, 96 h; for inhibition at 0.01 µM: read-out: Inhibition Rate at 10 nM (%); for inhibition at 0.5 µM: read-out: Inhibition Rate at 500 nM (%).
Experimental: as §1, §2, §3
The subject of assay [13] is Human multiple myeloma cell (MM.1S). Described as above. Particulars: Homo sapiens, MM1.S, 96 h.
Experimental: as §1, §2, §3
Setting [14] is: read-out: Inhibition Rate at 10 nM (%).
[15] abbreviates: read-out: Inhibition Rate at 500 nM (%).

T1 sequence (Q96SW2 whole entry): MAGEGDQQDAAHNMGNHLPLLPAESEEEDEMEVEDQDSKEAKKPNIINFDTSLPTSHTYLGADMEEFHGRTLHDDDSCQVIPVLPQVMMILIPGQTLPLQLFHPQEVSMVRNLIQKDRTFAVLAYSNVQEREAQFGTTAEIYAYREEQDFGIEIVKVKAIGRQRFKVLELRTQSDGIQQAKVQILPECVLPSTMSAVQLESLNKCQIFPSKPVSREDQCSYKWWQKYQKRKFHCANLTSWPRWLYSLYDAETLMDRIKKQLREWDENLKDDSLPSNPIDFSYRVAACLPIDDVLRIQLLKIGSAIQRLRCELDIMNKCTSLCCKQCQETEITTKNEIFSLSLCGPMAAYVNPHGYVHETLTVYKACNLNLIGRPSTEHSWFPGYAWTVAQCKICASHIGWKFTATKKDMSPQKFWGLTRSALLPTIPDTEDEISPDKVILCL
T2 sequence (P48729 whole entry): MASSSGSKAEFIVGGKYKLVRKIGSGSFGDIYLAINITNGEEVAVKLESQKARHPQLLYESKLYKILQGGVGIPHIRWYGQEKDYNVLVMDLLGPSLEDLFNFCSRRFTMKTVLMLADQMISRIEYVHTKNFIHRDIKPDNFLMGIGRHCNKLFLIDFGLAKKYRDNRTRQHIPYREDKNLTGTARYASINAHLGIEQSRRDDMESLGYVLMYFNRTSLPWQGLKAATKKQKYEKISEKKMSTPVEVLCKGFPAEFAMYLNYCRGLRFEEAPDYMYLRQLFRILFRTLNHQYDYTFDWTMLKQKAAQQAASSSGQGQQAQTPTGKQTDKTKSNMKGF
T2 sequence (Q96SW2 whole entry): as the sequence (Q96SW2 whole entry) above
T2 sequence (Q16531 whole entry partner): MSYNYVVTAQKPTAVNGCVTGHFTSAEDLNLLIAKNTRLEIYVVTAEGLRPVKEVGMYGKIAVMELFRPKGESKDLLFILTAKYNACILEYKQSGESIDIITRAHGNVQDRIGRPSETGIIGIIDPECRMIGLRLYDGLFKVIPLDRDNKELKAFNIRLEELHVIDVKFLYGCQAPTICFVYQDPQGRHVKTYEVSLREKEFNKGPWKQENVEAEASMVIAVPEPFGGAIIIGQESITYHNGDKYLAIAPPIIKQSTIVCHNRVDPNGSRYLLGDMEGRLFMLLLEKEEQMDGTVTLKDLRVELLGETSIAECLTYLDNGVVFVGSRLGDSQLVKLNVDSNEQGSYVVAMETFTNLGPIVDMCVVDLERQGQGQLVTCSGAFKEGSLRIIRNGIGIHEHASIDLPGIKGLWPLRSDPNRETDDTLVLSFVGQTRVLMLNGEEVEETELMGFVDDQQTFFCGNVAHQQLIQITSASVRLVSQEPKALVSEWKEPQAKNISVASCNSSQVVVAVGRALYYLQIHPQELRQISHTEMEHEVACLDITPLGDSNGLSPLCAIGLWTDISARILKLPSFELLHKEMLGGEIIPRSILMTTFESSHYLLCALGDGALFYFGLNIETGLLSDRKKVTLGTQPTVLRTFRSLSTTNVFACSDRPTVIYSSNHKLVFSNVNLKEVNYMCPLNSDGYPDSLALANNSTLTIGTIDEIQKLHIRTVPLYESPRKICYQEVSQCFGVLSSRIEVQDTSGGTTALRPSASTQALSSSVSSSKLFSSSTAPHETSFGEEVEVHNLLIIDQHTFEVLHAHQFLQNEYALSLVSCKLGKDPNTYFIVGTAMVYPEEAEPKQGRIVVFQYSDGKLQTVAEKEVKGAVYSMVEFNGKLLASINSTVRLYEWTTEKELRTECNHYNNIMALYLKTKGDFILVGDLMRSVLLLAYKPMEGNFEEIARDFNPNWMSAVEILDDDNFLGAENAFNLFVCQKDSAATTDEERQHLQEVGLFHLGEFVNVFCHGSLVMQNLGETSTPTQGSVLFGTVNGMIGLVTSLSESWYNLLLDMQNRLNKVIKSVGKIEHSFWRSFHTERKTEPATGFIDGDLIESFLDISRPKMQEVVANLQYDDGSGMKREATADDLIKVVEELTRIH
T6 sequence (Q9UKS7 whole entry): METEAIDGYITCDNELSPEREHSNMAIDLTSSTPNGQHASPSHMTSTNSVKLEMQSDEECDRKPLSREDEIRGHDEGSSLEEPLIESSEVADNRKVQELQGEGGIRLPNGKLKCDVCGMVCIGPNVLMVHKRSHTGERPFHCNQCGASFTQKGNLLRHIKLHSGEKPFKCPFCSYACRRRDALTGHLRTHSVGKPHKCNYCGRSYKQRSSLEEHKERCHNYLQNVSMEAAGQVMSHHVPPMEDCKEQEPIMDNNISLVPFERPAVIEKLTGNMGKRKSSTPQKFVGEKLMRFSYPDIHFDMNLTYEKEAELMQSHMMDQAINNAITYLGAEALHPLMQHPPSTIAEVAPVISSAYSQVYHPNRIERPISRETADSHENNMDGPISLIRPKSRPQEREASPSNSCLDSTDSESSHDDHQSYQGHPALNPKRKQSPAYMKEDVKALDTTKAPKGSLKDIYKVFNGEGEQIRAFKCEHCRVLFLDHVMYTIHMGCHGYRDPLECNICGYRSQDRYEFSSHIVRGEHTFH
T6 sequence (Q96SW2 whole entry): as the sequence (Q96SW2 whole entry) above
T6 sequence (Q16531 whole entry partner): as the sequence (Q16531 whole entry partner) above
T5 sequence (Q13422 whole entry): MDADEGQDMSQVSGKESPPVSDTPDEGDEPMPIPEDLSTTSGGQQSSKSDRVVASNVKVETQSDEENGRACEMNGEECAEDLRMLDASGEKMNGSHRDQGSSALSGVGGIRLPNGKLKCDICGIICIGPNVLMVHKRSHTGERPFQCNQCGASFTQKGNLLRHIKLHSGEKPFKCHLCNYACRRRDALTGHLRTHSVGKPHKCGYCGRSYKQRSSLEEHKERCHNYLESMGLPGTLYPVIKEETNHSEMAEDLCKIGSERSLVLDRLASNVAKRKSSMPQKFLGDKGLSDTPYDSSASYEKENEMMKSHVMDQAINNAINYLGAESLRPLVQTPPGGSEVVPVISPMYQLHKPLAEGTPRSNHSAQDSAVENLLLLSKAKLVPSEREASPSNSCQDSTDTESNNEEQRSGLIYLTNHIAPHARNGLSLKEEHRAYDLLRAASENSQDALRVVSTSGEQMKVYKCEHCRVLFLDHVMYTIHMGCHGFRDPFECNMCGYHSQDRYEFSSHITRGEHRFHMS
T5 sequence (Q96SW2 whole entry): as the sequence (Q96SW2 whole entry) above
T5 sequence (Q16531 whole entry partner): as the sequence (Q16531 whole entry partner) above
T4 sequence (P30291 whole entry): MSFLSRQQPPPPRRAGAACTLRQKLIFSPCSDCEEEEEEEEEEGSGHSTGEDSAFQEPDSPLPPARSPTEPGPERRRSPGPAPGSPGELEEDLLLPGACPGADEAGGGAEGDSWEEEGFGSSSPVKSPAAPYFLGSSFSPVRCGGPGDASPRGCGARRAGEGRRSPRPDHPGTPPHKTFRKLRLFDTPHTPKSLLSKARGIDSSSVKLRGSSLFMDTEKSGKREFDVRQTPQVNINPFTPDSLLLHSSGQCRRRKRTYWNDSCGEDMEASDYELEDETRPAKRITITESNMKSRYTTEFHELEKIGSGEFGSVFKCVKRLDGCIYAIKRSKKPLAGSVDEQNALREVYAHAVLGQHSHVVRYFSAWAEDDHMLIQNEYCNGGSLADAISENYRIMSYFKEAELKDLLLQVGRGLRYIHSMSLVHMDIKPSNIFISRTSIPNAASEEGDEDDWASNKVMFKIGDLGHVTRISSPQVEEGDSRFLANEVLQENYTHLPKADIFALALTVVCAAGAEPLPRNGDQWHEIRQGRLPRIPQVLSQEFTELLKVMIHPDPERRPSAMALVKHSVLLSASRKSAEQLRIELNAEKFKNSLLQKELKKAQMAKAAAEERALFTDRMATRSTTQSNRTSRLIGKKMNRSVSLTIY
T4 sequence (Q96SW2 whole entry): as the sequence (Q96SW2 whole entry) above
T4 sequence (Q16531 whole entry partner): as the sequence (Q16531 whole entry partner) above
T3 sequence (Q9UKT9 whole entry): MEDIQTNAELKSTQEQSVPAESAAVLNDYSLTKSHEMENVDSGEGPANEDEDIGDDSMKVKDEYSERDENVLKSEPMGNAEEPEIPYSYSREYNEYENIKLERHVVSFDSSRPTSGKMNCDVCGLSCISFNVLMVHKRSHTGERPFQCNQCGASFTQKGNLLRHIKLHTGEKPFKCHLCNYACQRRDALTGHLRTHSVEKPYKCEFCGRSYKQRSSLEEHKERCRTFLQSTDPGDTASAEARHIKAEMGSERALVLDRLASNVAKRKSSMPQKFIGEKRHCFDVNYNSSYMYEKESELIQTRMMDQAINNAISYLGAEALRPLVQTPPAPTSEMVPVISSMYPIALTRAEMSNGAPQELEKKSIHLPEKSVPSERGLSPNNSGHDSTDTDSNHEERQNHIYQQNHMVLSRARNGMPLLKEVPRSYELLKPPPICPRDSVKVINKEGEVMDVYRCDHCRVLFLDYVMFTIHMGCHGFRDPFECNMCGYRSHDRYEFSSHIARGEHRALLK
T3 sequence (Q96SW2 whole entry): as the sequence (Q96SW2 whole entry) above
T3 sequence (Q16531 whole entry partner): as the sequence (Q16531 whole entry partner) above

Turning to `O=C1CCC(N2Cc3cc(CN4CC=C(c5ncnc6sc(-c7ccccc7)cc56)CC4)ccc3C2=S)C(=O)N1` (centres unmarked) [GT-09319, 3-(5-((4-(6-phenylthieno[2,3-d]pyrimidin-4-yl)-3,6-dihydropyridin-1(2H)-yl)methyl)-1-thioxoisoindolin-2-yl)piperidine-2,6-dione], the inhibition (commonly the relative decrease from the control value, in per cent) at 0.01 µM in [1] was 20 to 30%; in assay [9], 40 to 50%; in assay [10], 80 to 100%; in assay [11] (setting [14]), 5 to 10%; in assay [12], 70 to 80%. The inhibition at 0.5 µM in assay [1] lay in the range of 70 to 80%; in [2], 60 to 80%; in [9], 80 to 100%; in [10], 80 to 100%; in assay [11] (setting [15]), 50 to 60%; in assay [12], 80 to 100%. Besides, the inhibition at 2 µM in assay [2] was 80 to 100%. In addition, the “GSPT1 substrate protein remaining %” value in assay [3] was “A (0% ≤ substrate protein remaining % ≤ 80%)”. Also, the “CK1α substrate protein remaining %” value in [4] is “B (80%< substrate protein remaining %≤ 100%)”. In assay [5], the “IKZF3 substrate protein remaining %” value is on record as “A (0% ≤ substrate protein remaining % ≤ 80%)”. In assay [6], the “Wee1 substrate protein remaining %” value is “A (0% ≤ substrate protein remaining % ≤ 80%)”. Also, in [7], the “IKZF 1 substrate protein remaining %” value is listed as “A (0% ≤ substrate protein remaining % ≤ 80%)”. The “IKZF2 substrate protein remaining %” value in assay [8] is “A (0% ≤ substrate protein remaining % ≤ 80%)”.

Take `O=C1CCC(N2Cc3cc(CN4CC=C(c5ncnc6sccc56)CC4)ccc3C2=S)C(=O)N1` (centres unmarked) [GT-09314, 3-(5-((4-(thieno[2,3-d]pyrimidin-4-yl)-3,6-dihydropyridin-1(2H)-yl)methyl)-1-thioxoisoindolin-2-yl)piperidine-2,6-dione]: the inhibition at 0.5 µM in [2] was in the range of 80 to 100%; in assay [9] it was 40 to 50%; in [10], 80 to 100%; in [12] it was 80 to 100%. Further, the inhibition at 2 µM in assay [2] lay in the range of 80 to 100%. Moreover, in assay [3], the “GSPT1 substrate protein remaining %” value is “A (0% ≤ substrate protein remaining % ≤ 80%)”. For the same molecule, the “CK1α substrate protein remaining %” value in assay [4] is recorded as “B (80%< substrate protein remaining %≤ 100%)”. The “IKZF3 substrate protein remaining %” value in assay [5] was “A (0% ≤ substrate protein remaining % ≤ 80%)”. In addition, the “Wee1 substrate protein remaining %” value in [6] is listed as “A (0% ≤ substrate protein remaining % ≤ 80%)”. Moreover, the “IKZF 1 substrate protein remaining %” value in assay [7] was “A (0% ≤ substrate protein remaining % ≤ 80%)”. Moreover, in assay [8], the “IKZF2 substrate protein remaining %” value was “B (80%< substrate protein remaining %≤ 100%)”. The inhibition at 0.01 µM in assay [9] is 5 to 10%; in assay [10] it was 5 to 10%; in assay [12], 10 to 20%.

For `O=C1CCC(N2Cc3cc(CN4CC=C(c5ncnc6sc7c(c56)CCCC7)CC4)ccc3C2=S)C(=O)N1` (centres unmarked) [GT-09324, 3-(5-((4-(5,6,7,8-tetrahydrobenzo[4,5]thieno[2,3-d]pyrimidin-4-yl)-3,6-dihydropyridin-1(2H)-yl)methyl)-1-thioxoisoindolin-2-yl)piperidine-2,6-dione], the inhibition at 0.5 µM in assay [2] was in the range of 60 to 80%; in [9], 80 to 100%; in assay [10] it was 80 to 100%; in assay [12], 80 to 100%. Also, the inhibition at 2 µM in [2] fell in the range of 80 to 100%. Moreover, the “GSPT1 substrate protein remaining %” value in assay [3] is “A (0% ≤ substrate protein remaining % ≤ 80%)”. Further, the “CK1α substrate protein remaining %” value in [4] is given as “B (80%< substrate protein remaining %≤ 100%)”. Also, the “IKZF3 substrate protein remaining %” value in assay [5] is listed as “B (80%< substrate protein remaining %≤ 100%)”. The “Wee1 substrate protein remaining %” value in assay [6] is “A (0% ≤ substrate protein remaining % ≤ 80%)”. Besides, the “IKZF 1 substrate protein remaining %” value in assay [7] is “B (80%< substrate protein remaining %≤ 100%)”. The “IKZF2 substrate protein remaining %” value in assay [8] was “B (80%< substrate protein remaining %≤ 100%)”. Also, the results for the inhibition at 0.01 µM in [9], in assay [10] and in [12] were 30 to 40%, 10 to 20% and 20 to 30%, respectively.

On to `CC(C)c1cc2c(C3=CCN(Cc4ccc5c(c4)CN(C4CCC(=O)NC4=O)C5=S)CC3)ncnc2s1` (centres unmarked) [GT-09317, 3-(5-((4-(6-isopropylthieno[2,3-d]pyrimidin-4-yl)-3,6-dihydropyridin-1(2H)-yl)methyl)-1-thioxoisoindolin-2-yl)piperidine-2,6-dione], for which the inhibition at 0.01 µM lay within 5 to 10% in assay [1]; 10 to 20% in assay [13] (setting [14]); 50 to 60% in assay [9]; 80 to 100% in [10]; 80 to 100% in assay [12]. Besides, the inhibition at 0.5 µM was 80 to 100% in assay [1]; 60 to 70% in assay [13] (setting [15]); 40 to 53% in assay [2]; 80 to 100% in [9]; 100 to 110% in assay [10]; 100 to 110% in assay [12]. Further, the inhibition at 2 µM in [2] fell in the range of 80 to 100%. Moreover, the “GSPT1 substrate protein remaining %” value in assay [3] is “A (0% ≤ substrate protein remaining % ≤ 80%)”. Moreover, in assay [4], the “CK1α substrate protein remaining %” value was “B (80%< substrate protein remaining %≤ 100%)”. For the same molecule, the “IKZF3 substrate protein remaining %” value in [5] is given as “A (0% ≤ substrate protein remaining % ≤ 80%)”. The “Wee1 substrate protein remaining %” value in assay [6] is “A (0% ≤ substrate protein remaining % ≤ 80%)”. Further, the “IKZF 1 substrate protein remaining %” value in assay [7] is “A (0% ≤ substrate protein remaining % ≤ 80%)”. Further, the “IKZF2 substrate protein remaining %” value in assay [8] was “A (0% ≤ substrate protein remaining % ≤ 80%)”.

Consider `O=C1CCC(N2Cc3cc(CN4CC=C(c5ncc6ccsc6n5)CC4)ccc3C2=S)C(=O)N1` (centres unmarked) [GT-09327, 3-(5-((4-(thieno[2,3-d]pyrimidin-2-yl)-3,6-dihydropyridin-1(2H)-yl)methyl)-1-thioxoisoindolin-2-yl)piperidine-2,6-dione], for which the inhibition at 0.5 µM in assay [2] is 60 to 80%; in assay [9] it was 80 to 100%; in assay [10] it was 80 to 100%; in assay [12], 80 to 100%. Moreover, the inhibition at 2 µM in assay [2] lay in the range of 80 to 100%. Moreover, the “GSPT1 substrate protein remaining %” value in assay [3] is on record as “A (0% ≤ substrate protein remaining % ≤ 80%)”. Further, the “CK1α substrate protein remaining %” value in assay [4] is listed as “B (80%< substrate protein remaining %≤ 100%)”. Moreover, in [5], the “IKZF3 substrate protein remaining %” value is “B (80%< substrate protein remaining %≤ 100%)”. In assay [6], the “Wee1 substrate protein remaining %” value was “A (0% ≤ substrate protein remaining % ≤ 80%)”. In addition, the “IKZF 1 substrate protein remaining %” value in assay [7] is listed as “B (80%< substrate protein remaining %≤ 100%)”. In [8], the “IKZF2 substrate protein remaining %” value is recorded as “A (0% ≤ substrate protein remaining % ≤ 80%)”. For the same molecule, the figures for the inhibition at 0.01 µM in assay [9], in assay [10] and in assay [12] were 20 to 30%, 20 to 30% and 30 to 40%, respectively.

As for `Cc1nc(C2=CCN(Cc3ccc4c(c3)CN(C3CCC(=O)NC3=O)C4=S)CC2)c2ccsc2n1` (centres unmarked) [GT-09322, 3-(5-((4-(2-methylthieno[2,3-d]pyrimidin-4-yl)-3,6-dihydropyridin-1(2H)-yl)methyl)-1-thioxoisoindolin-2-yl)piperidine-2,6-dione], the inhibition at 0.5 µM in assay [2] fell in the range of 60 to 80%; in [9], 80 to 100%; in assay [10], 80 to 100%; in assay [12], 80 to 100%. Besides, the inhibition at 2 µM in [2] was in the range of 80 to 100%. For the same molecule, the “GSPT1 substrate protein remaining %” value in assay [3] is “A (0% ≤ substrate protein remaining % ≤ 80%)”. Besides, in assay [4], the “CK1α substrate protein remaining %” value is given as “B (80%< substrate protein remaining %≤ 100%)”. The “IKZF3 substrate protein remaining %” value in assay [5] is “B (80%< substrate protein remaining %≤ 100%)”. Also, the “Wee1 substrate protein remaining %” value in assay [6] is “A (0% ≤ substrate protein remaining % ≤ 80%)”. Also, in [7], the “IKZF 1 substrate protein remaining %” value is on record as “A (0% ≤ substrate protein remaining % ≤ 80%)”. Also, the “IKZF2 substrate protein remaining %” value in assay [8] was “B (80%< substrate protein remaining %≤ 100%)”. The inhibition at 0.01 µM in assay [9] fell in the range of 10 to 20%; in assay [10] it was 10 to 20%; in assay [12] it was 5 to 10%.
